Data published in patent publication US20230165824A1, “METHODS, SYSTEMS AND COMPOSITIONS FOR INHIBITION OF CELLULAR DYSFUNCTION AND CELL DEATH WITH DEUTERATED PUFAs” (BioJiva LLC, priority 2021, published 2023).
Like-named read-outs stand apart in the source and are kept apart here.

Key:
murine fibroblasts = conditions: for % Cell Survival: murine fibroblasts treated with 50 micromolar erastin, plate dilution assay; for Level of protection against LPO induced cell death relative to 13,13-D2-arachidonic acid: murine fibroblasts, 50 micromolar erastin
Protocol: In this example, two different pools of cells were each seeded in 48-well plates and treated with 50 micromolar of erastin.
Afterwards, cell viability was measured by plate dilution assay to distinguish between cells that are alive and those that are dead on a Petri dish.

patients with ALS = experiment: ALSFRS-R rate of functional decline in ALS patients on primer/maintenance dosing regimen (Example 3); assay type: in vivo, human; conditions: for Annualized average reduction in the rate of disease progression: 9 grams then 5 grams daily, vs natural history
Protocol: As set forth in the examples below, the rate of functional decline is predicated on measuring an individual's, or a cohort's, average for the natural history of disease progression. Next, the individual or cohort average for the functional decline is determined at a period of time such as at 3, 6 or 12 months after initiation of therapy. The rate of decline based on the average of the natural history of the cohort is set as the denominator. The numerator is set as the delta between the rate of the natural history of disease progression and the rate of functional decline after a set period of treatment per this invention. The resulting fraction is the multiplied by 100 to give a percent change. The following exemplifies this analysis.
This example illustrates the reduction in the rate of disease progression in patients with ALS treated by the dosing methods described herein, this example evidences that the amount of oxidized PUFA products has been reduced to a level that allows the otherwise impaired regulatory enzymes are able to neutralize substantially all of these oxidized products now generated. Specifically, a cohort of 3 patients was placed on a dosing regimen consisting of a first dosing component (primer dose) of about 9 grams of D2-LA ethyl ester daily for a period of at least 30 days and then all three patients were transitioned to a second dosing component (maintenance dose) of 5 grams of D2-LA ethyl ester.
The functionality of each of the patients was evaluated periodically using the ALSFRS-R protocol. The patients continued on the dosing regimen for a period of 6 months (patient A) or 1 year (patient B) or for 9 months (patient C). Patient C died at the end of 9 months and their death was attributed to factors other than ALS cardiomyopathy. Before initiation of therapy, the natural history of each patient in the cohort was determined and an average annual rate of functional decline was measured at 21.
The annualized progression of the disease, as measured by an average annual rate of functional decline for all three patients starting at the time that dosing began and terminating at the end of the dosing regimen and then annualized as described above, was measured as 2.1. Using the formula described above, one obtains the following: […]

[1] = Determination of D2-AA and D2-LA concentrations in CSF and RBCs in a single patient (Example 1)
Text: This example determines the relative concentration of D2-AA in the CSF and in RBCs in order to determine a correlation between these two concentrations. Specifically, a patient was continuously provided with a daily dose of 9 grams of D2-LA ethyl ester (which is 8.64 grams of active discounting for impurities and removal of the ethyl ester) over about a six-month period. Periodic samples of blood and CSF were taken and the concentration of both D2-LA and D-2AA in both the RBCs and the CSF were measured. In all cases, the D2-AA was obtained by deacylation of the ethyl ester of linoleic acid in the gastrointestinal tract followed by conversion of D2-LA in vivo to D2-AA.

[2] = tested on: infants suffering from INAD; experiment: Open label treatment study of INAD patients (Example 6); assay type: in vivo, human
Protocol: Novel and conventional developmental neurologic assessment scales appropriate to the disease and which measure vital function in different parts of the brain were applied at base line and at 6 monthly intervals and the health and well-being of the infants were assessed continuously for 1-2 years, including any aspiration pneumonia, hospitalizations and deaths.

[3] = tested on: patients suffering from ALS; experiment: ALSFRS-R rate of functional decline in ALS patients treated with D2-LA (Comparative Example A); assay type: in vivo, human
Protocol: (§1) Patients suffering from ALS were treated with D2-LA over a period of time. […] Some patients were provided 2 grams of 11,11-D-2 LA per day as opposed to the loading dose of 9 grams per day.
(§2) Functional scores for each of the patients (ALSFRS-R results) at the end of therapy were compared to the natural history scores at the start of therapy.

[4] = ALS patients on D2-LA; based on total AA and D2-AA; 'when calculated'
Protocol: as §1, §2

[5] = INAD children, 3.9 grams D2-LA ethyl ester daily for 1 month then 2.9 grams
Protocol: In this example, children suffering from INAD were treated with a daily dose of 3.9 grams of D2-LA ethyl ester followed by 2.9 grams of D2-LA ethyl ester. Given the age and weight of these children, such is assumed to be substantially equivalent to a loading dose of from about 7 and about 12 grams per day for an adult patient for an adult patient and a maintenance dose which is less than the loading dose again for an adult patient.
This example also determines the concentration of D2-AA in RBCs. Specifically, a cohort of 14 children was provided with a daily dose of 3.9 grams of D2-LA ethyl ester for 1 month followed by 2.9 grams of D2-LA ethyl ester for the remaining six-month period. Blood samples were taken at 3 months for all but 1 child and at 6 months for all children. The concentration of D2-AA in RBCs was measured.

[6] = 6 months; 15 INAD infants treated
[7] = 3 months, single patient, daily 9 grams D2-LA ethyl ester
[8] = 6 months, single patient, daily 9 grams D2-LA ethyl ester

## [2H]C([2H])(/C=C\CCCCC)/C=C\C([2H])([2H])/C=C\C([2H])([2H])/C=C\CCCC(=O)O
Murine fibroblasts
  % Cell Survival: 70.2%
  Level of protection against LPO induced cell death relative to 13,13-D2-arachidonic acid: approximately twice the level of protection
Murine fibroblasts; listed as D6-AA
  Level of protection against LPO induced cell death relative to 13,13-D2-arachidonic acid: about 2

## [2H]C([2H])(/C=C\CCCCC)/C=C\CCCCCCCC(=O)OCC [D2-LA ethyl ester, 11,11-D2-linoleic acid ethyl ester]
Patients with ALS; Patient A, 6 months on regimen, NH rate of decline −16
  Functional Rate Decline During Therapy: −3
Patients with ALS; Patient B, 1 year on regimen, NH rate of decline −31
  Functional Rate Decline During Therapy: −2
Patients with ALS; Patient C, 9 months on regimen, NH rate of decline −16
  Functional Rate Decline During Therapy: −1.3
Patients with ALS; cohort of 3 ALS patients
  Annualized average reduction in the rate of disease progression: 90%
Patients with ALS; cohort of 3 ALS patients, about 9 grams daily at least 30 days then 5 grams, natural history 21
  Average annual rate of functional decline (ALSFRS-R) during dosing, annualized: 2.1

## [2H]C([2H])(/C=C\CCCCC)/C=C\CCCCCCCC(=O)O [D2-LA, 11,11-D2-Linoleic Acid]
Patients with ALS; cohort of 3 ALS patients
  Annualized average reduction in the rate of disease progression: ~90%
[1]; 1 month, single patient, daily dose of 9 grams of D2-LA ethyl ester
  Concentration of D2-LA in CSF: 19.8%
[1]; [7]
  Concentration of D2-LA in RBCs: 34.7%
[1]; [8]
  Concentration of D2-LA in RBCs: 34.5%
[2]; 19 INAD infants treated
  Deaths due to other causes: 2
  Non-fatal pneumonia: 2
[2]; 19 INAD infants treated at least 1 year and up to 2.5 years
  Serious events: 4
[2]; 19 INAD infants treated at least 1 year and up to 2.5 years, natural history 10/37
  No. of Aspirations resulting in pneumonias: 2/19
[2]; 19 INAD infants treated, mortality from pneumonias, natural history 21.6%
  Percent mortality: 0%
[2]; 19 INAD infants treated, natural history 8
  Fatal Pneumonias: 0
[2]; 19 INAD infants treated, natural history 27.0%
  Percent Pneumonias: 10.5%
[2]; 19 subjects over 2.5 years treatment
  Deaths due to aspiration pneumonia: no deaths due to aspiration pneumonia
[3]; different dosing amounts and periods of D2-LA (some 2 grams per day), pre-treatment −14.2+/−4.4
  Annualized rate of decline (ALSFRS-R) during treatment: −7.6+/−1.4 per year
[3]; p=0.07, paired t-test for within-subject change in slope
  Reduction in rate of decline vs pre-treatment: 46%

## [2H]C([2H])(/C=C\C/C=C\C/C=C\CCCC(=O)O)/C=C\CCCCC [D2-AA, 13,13-D2-Arachidonic Acid]
Murine fibroblasts
  % Cell Survival: 33.2%
[1]; 1 month, extrapolated from 3 and 6 month values (FIG. 1)
  Amount of D2-AA in RBCs at 1 month, estimated by linear extrapolation: about 3%
[1]; 1 month, single patient, daily 9 grams D2-LA ethyl ester, based on arachidonic acid + deuterated arachidonic acid
  Concentration of D2-AA in CSF: 8%
[1]; [7]
  Concentration of D2-AA in RBCs: 11.8%
[1]; [8]
  Concentration of D2-AA in RBCs: 16.7%
[4]
  Amount of D2-AA in the patients' RBCs, average: about 3%
[5]; 3 months
  Average concentration of D2-AA in the RBCs: 12%
[5]; 6 months
  Average concentration of D2-AA in the RBCs: 16.7%
[6]
  Average plasma level of D2-AA: 17.4%
